{"source": "patent US12201633B2", "about": "“Compounds and methods for treatment of visceral pain” (Arena Pharmaceuticals, Inc., priority 2017, dated 2025)", "key": {"[1]": {"target": "T1, human CB2 receptor (Homo sapiens, UniProt P34972)", "T1 sequence (P34972 whole entry)": "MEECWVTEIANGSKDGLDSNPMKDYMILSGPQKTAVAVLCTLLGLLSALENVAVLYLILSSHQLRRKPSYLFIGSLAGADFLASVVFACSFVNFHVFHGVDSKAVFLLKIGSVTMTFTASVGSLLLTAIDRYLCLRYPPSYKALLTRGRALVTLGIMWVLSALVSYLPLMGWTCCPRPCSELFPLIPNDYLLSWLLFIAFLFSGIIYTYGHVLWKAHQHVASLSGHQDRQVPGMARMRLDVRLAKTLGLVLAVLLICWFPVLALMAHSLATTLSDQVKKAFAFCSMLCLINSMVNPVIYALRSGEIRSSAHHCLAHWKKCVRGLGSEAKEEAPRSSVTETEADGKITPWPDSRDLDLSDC", "test": "PathHunter β-arrestin assay, CB2"}, "[2]": {"target": "T1, human CB2 receptor", "test": "HTRF assay for direct cAMP measurement, CB2", "format": "cell-based", "parameters": "93-0164 (CHO-K1 EA-Arrestin parental line); host or cells: CHO-K1 EA-Arrestin, clone #61"}, "[3]": {"details": "read-out: EC50 hCB2, β-arrestin, CHO-K1 cells, Table B-2"}}}
{"smiles": "O=C(NC1(CO)CC1)c1nn(-c2ccc(Cl)cc2Cl)c2c1C[C@H]1C[C@@H]21", "note": "[Compound 174, (1aR,5aR)-2-(2,4-Dichloro-phenyl)-1a,2,5,5a-tetrahydro-1H-2,3-diaza-cyclopropa[a]pentalene-4-carboxylic acid (1-hydroxymethyl-cyclopropyl)-amide]", "values": [{"measurement": "EC50", "setting": "[1]", "result": 167, "unit": "nM"}, {"measurement": "EC50", "setting": "[2]", "result": 38.2, "unit": "nM"}]}
{"smiles": "CC(C)(CO)NC(=O)c1nn(-c2cnc(C#N)cn2)c2c1C[C@H]1C[C@@H]21", "note": "[Compound 264, (1aR,5aR)-2-(5-Cyano-pyrazin-2-yl)-1a,2,5,5a-tetrahydro-1H-2,3-diaza-cyclopropa[a]pentalene-4-carboxylic acid (2-hydroxy-1,1-dimethyl-ethyl)-amide]", "values": [{"measurement": "EC50", "setting": "[2]", "result": 10.1, "unit": "nM"}]}
{"smiles": "CC(C)(CO)NC(=O)c1nn(-c2ccc(F)cn2)c2c1C[C@H]1C[C@@H]21", "note": "[Compound 309, (1aR,5aR)-2-(5-Fluoro-pyridin-2-yl)-1a,2,5,5a-tetrahydro-1H-2,3-diaza-cyclopropa[a]pentalene-4-carboxylic acid (2-hydroxy-1,1-dimethyl-ethyl)-amide]", "values": [{"measurement": "EC50", "setting": "[1]", "result": 136, "unit": "nM"}, {"measurement": "EC50", "setting": "[2]", "result": 19, "unit": "nM"}]}
{"smiles": "CC(C)(CO)NC(=O)c1nn(-c2ccc(F)cc2F)c2c1C1CC1C2", "note": "(centres unmarked) [Compound 515, 1-(2,4-Difluoro-phenyl)-3b,4,4a,5-tetrahydro-1H-cyclopropa[3,4]cyclopenta[1,2-c]pyrazole-3-carboxylic acid (2-hydroxy-1,1-dimethyl-ethyl)-amide]", "values": [{"measurement": "EC50", "setting": "[2]", "result": 4.32, "unit": "nM"}]}
{"smiles": "CC(C)(C#N)NC(=O)c1nn(-c2cc(Cl)ccn2)c2c1C[C@H]1C[C@@H]21", "note": "[Compound 625, (1aR,5aR)-2-(4-Chloro-pyridin-2-yl)-1a,2,5,5a-tetrahydro-1H-2,3-diaza-cyclopropa[a]pentalene-4-carboxylic acid (cyano-dimethyl-methyl)-amide]", "values": [{"measurement": "EC50", "setting": "[1]", "result": 11.8, "unit": "nM"}, {"measurement": "EC50", "setting": "[2]", "result": 4.45, "unit": "nM"}]}
{"smiles": "CC(C)(C)[C@@H](CO)NC(=O)c1nn(-c2cnccn2)c2c1C[C@H]1C[C@@H]21", "note": "[Compound 642, (1aR,5aR)-2-Pyrazin-2-yl-1a,2,5,5a-tetrahydro-1H-2,3-diaza-cyclopropa[a]pentalene-4-carboxylic acid ((S)-1-hydroxymethyl-2,2-dimethyl-propyl)-amide]", "values": [{"measurement": "EC50", "setting": "[1]", "result": 26.4, "unit": "nM"}, {"measurement": "EC50", "setting": "[2]", "result": 4.38, "unit": "nM"}]}
{"smiles": "CC(C)(COP(=O)(O)O)NC(=O)c1nn(-c2cc(C#N)ccn2)c2c1C[C@H]1C[C@@H]21", "note": "[Compound 646, Phosphoric acid mono-(2-{[(1aR,5aR)-2-(4-cyano-pyridin-2-yl)-1a,2,5,5a-tetrahydro-1H-2,3-diaza-cyclopropa[a]pentalene-4-carbonyl]-amino}-2-methyl-propyl) ester]", "values": [{"measurement": "EC50", "setting": "[1]", "result": 925, "unit": "nM"}]}
{"smiles": "CC(C)(C)[C@@H](COP(=O)(O)O)NC(=O)c1nn(-c2cnccn2)c2c1C[C@H]1C[C@@H]21", "note": "[Compound 683, Phosphoric acid mono-{(S)-3,3-dimethyl-2-[((1aR,5aR)-2-pyrazin-2-yl-1a,2,5,5a-tetrahydro-1H-2,3-diaza-cyclopropa[a]pentalene-4-carbonyl)-amino]-butyl} ester]", "values": [{"measurement": "EC50", "setting": "[1]", "result": 3000, "unit": "nM"}]}
{"smiles": "O=C(N[C@H](CO)C1CCOCC1)c1nn(-c2cnccn2)c2c1C[C@H]1C[C@@H]21", "note": "[Compound 684, (1aR,5aR)-2-Pyrazin-2-yl-1a,2,5,5a-tetrahydro-1H-2,3-diaza-cyclopropa[a]pentalene-4-carboxylic acid ((S)-2-hydroxy-1-tetrahydro-pyran-4-yl-ethyl)-amide]", "values": [{"measurement": "EC50", "setting": "[1]", "result": 59, "unit": "nM"}, {"measurement": "EC50", "setting": "[2]", "result": 7.08, "unit": "nM"}]}
{"smiles": "CC(C)[C@@H](CO)NC(=O)c1nn(-c2c[n+]([O-])ccn2)c2c1C[C@H]1C[C@@H]21", "note": "[Compound 690, (1aR,5aR)-2-(4-Oxy-pyrazin-2-yl)-1a,2,5,5a-tetrahydro-1H-2,3-diaza-cyclopropa[a]pentalene-4-carboxylic acid ((S)-1-hydroxymethyl-2-methyl-propyl)-amide]", "values": [{"measurement": "EC50", "setting": "[1]", "result": 31, "unit": "nM"}, {"measurement": "EC50", "setting": "[2]", "result": 1.79, "unit": "nM"}]}
{"smiles": "CC(C)(C)[C@@H](COP(=O)(O)O)NC(=O)c1nn(-c2c[n+]([O-])ccn2)c2c1C[C@H]1C[C@@H]21", "note": "[Compound 703, Phosphoric acid mono-((S)-3,3-dimethyl-2-{[(1aR,5aR)-2-(4-oxy-pyrazin-2-yl)-1a,2,5,5a-tetrahydro-1H-2,3-diaza-cyclopropa[a]pentalene-4-carbonyl]-amino}-butyl) ester]", "values": [{"measurement": "EC50", "setting": "[1]", "result": 603, "unit": "nM"}]}
{"smiles": "COC(=O)C(NC(=O)c1nn(-c2c[n+]([O-])ccn2)c2c1C[C@H]1C[C@@H]21)c1ccccn1", "note": "(stereo partly drawn) [Compound 711, {[(1aR,5aR)-2-(4-Oxy-pyrazin-2-yl)-1a,2,5,5a-tetrahydro-1H-2,3-diaza-cyclopropa[a]pentalene-4-carbonyl]-amino}-pyridin-2-yl-acetic acid methyl ester]", "values": [{"measurement": "EC50", "setting": "[1]", "result": 28.1, "unit": "nM"}]}
{"smiles": "CNC(=O)[C@@H](NC(=O)c1nn(-c2c[n+]([O-])ccn2)c2c1C[C@H]1C[C@@H]21)c1ccccc1", "note": "[Compound 722, (1aR,5aR)-2-(4-Oxy-pyrazin-2-yl)-1a,2,5,5a-tetrahydro-1H-2,3-diaza-cyclopropa[a]pentalene-4-carboxylic acid ((S)-methylcarbamoyl-phenyl-methyl)-amide]", "values": [{"measurement": "EC50", "setting": "[1]", "result": 34, "unit": "nM"}]}
{"smiles": "O=C(NC1(C(F)(F)F)CC1)c1nn(-c2c[n+]([O-])ccn2)c2c1C[C@@H]1C[C@H]21", "note": "[Compound 764, (1aS,5aS)-2-(4-Oxy-pyrazin-2-yl)-1a,2,5,5a-tetrahydro-1H-2,3-diaza-cyclopropa[a]pentalene-4-carboxylic acid (1-trifluoromethyl-cyclopropyl)-amide]", "values": [{"measurement": "EC50", "setting": "[1]; [3]", "result": 5.92, "unit": "nM"}]}
{"smiles": "CC(C)(C)[C@@H](NC(=O)c1nn(-c2c[n+]([O-])ccn2)c2c1C[C@@H]1C[C@H]21)c1ccccn1", "note": "[Compound 766, (1aS,5aS)-2-(4-Oxy-pyrazin-2-yl)-1a,2,5,5a-tetrahydro-1H-2,3-diaza-cyclopropa[a]pentalene-4-carboxylic acid ((R)-2,2-dimethyl-1-pyridin-2-yl-propyl)-amide]", "values": [{"measurement": "EC50", "setting": "[1]", "result": 4.57, "unit": "nM"}]}
{"smiles": "CC(C)(C)[C@H](NC(=O)c1nn(-c2c[n+]([O-])ccn2)c2c1C[C@@H]1C[C@H]21)c1ccccn1", "note": "[Compound 767, (1aS,5aS)-2-(4-Oxy-pyrazin-2-yl)-1a,2,5,5a-tetrahydro-1H-2,3-diaza-cyclopropa[a]pentalene-4-carboxylic acid ((S)-2,2-dimethyl-1-pyridin-2-yl-propyl)-amide]", "values": [{"measurement": "EC50", "setting": "[1]", "result": 66.6, "unit": "nM"}]}
{"smiles": "CC(C)[C@@H](C)NC(=O)c1nn(-c2c[n+]([O-])ccn2)c2c1C[C@H]1C[C@@H]21", "note": "[Compound 828, (1aR,5aR)-2-(4-Oxy-pyrazin-2-yl)-1a,2,5,5a-tetrahydro-1H-2,3-diaza-cyclopropa[a]pentalene-4-carboxylic acid ((R)-1,2-dimethyl-propyl)-amide]", "values": [{"measurement": "EC50", "setting": "[1]", "result": 4.14, "unit": "nM"}]}
{"smiles": "CC(C)[C@H](N)C(=O)OC[C@@H](NC(=O)c1nn(-c2c[n+]([O-])ccn2)c2c1C[C@@H]1C[C@H]21)C(C)(C)C", "note": "[Compound 848, (1aS,5aS)—(S)-2-Amino-3-methyl-butyric acid (S)-3,3-dimethyl-2-{[2-(4-oxy-pyrazin-2-yl)-1a,2,5,5a-tetrahydro-1H-2,3-diaza-cyclopropa[a]pentalene-4-carbonyl]-amino}-butyl ester]", "values": [{"measurement": "EC50", "setting": "[1]", "result": 50, "unit": "nM"}]}
{"smiles": "CC(C)[C@@H](CO)NC(=O)c1nn(-c2c[n+]([O-])ccn2)c2c1C[C@@H]1C[C@H]21", "note": "[Compound 896, (1aS,5aS)-2-(4-Oxy-pyrazin-2-yl)-1a,2,5,5a-tetrahydro-1H-2,3-diaza-cyclopropa[a]pentalene-4-carboxylic acid ((S)-1-hydroxymethyl-2-methyl-propyl)-amide]", "values": [{"measurement": "EC50", "setting": "[1]", "result": 43.5, "unit": "nM"}]}
{"smiles": "CC(C)(C)NNC(=O)c1nn(-c2c[n+]([O-])ccn2)c2c1C[C@@H]1C[C@H]21", "note": "[Compound 902, (1aS,5aS)-2-(4-Oxy-pyrazin-2-yl)-1a,2,5,5a-tetrahydro-1H-2,3-diaza-cyclopropa[a]pentalene-4-carboxylic acid N′-tert-butyl-hydrazide]", "values": [{"measurement": "EC50", "setting": "[1]", "result": 77.5, "unit": "nM"}]}
{"smiles": "CC(C)(CF)NC(=O)c1nn(-c2c[n+]([O-])ccn2)c2c1C[C@@H]1C[C@H]21", "note": "[Compound 904, (1aS,5aS)-2-(4-Oxy-pyrazin-2-yl)-1a,2,5,5a-tetrahydro-1H-2,3-diaza-cyclopropa[a]pentalene-4-carboxylic acid (2-fluoro-1,1-dimethyl-ethyl)-amide]", "values": [{"measurement": "EC50", "setting": "[1]", "result": 31.4, "unit": "nM"}]}
{"smiles": "CC(C)[C@@H](C)NC(=O)c1nn(-c2c[n+]([O-])ccn2)c2c1C[C@@H]1C[C@H]21", "note": "[Compound 912, (1aS,5aS)-2-(4-Oxy-pyrazin-2-yl)-1a,2,5,5a-tetrahydro-1H-2,3-diaza-cyclopropa[a]pentalene-4-carboxylic acid ((R)-1,2-dimethyl-propyl)-amide]", "values": [{"measurement": "EC50", "setting": "[1]", "result": 9.49, "unit": "nM"}]}
{"smiles": "O=C(N[C@H](CO)c1ccccc1)c1nn(-c2c[n+]([O-])ccn2)c2c1C[C@@H]1C[C@H]21", "note": "[Compound 913, (1aS,5aS)-2-(4-Oxy-pyrazin-2-yl)-1a,2,5,5a-tetrahydro-1H-2,3-diaza-cyclopropa[a]pentalene-4-carboxylic acid ((S)-2-hydroxy-1-phenyl-ethyl)-amide]", "values": [{"measurement": "EC50", "setting": "[1]; [3]", "result": 105, "unit": "nM"}]}
{"smiles": "O=C(N[C@H]1c2ccccc2C[C@@H]1O)c1nn(-c2c[n+]([O-])ccn2)c2c1C[C@@H]1C[C@H]21", "note": "[Compound 920, (1aS,5aS)-2-(4-Oxy-pyrazin-2-yl)-1a,2,5,5a-tetrahydro-1H-2,3-diaza-cyclopropa[a]pentalene-4-carboxylic acid ((1S,2S)-2-hydroxy-indan-1-yl)-amide]", "values": [{"measurement": "EC50", "setting": "[1]", "result": 4.6, "unit": "nM"}]}
{"smiles": "O=C(NC1(C(F)(F)F)CC1)c1nn(-c2cnccn2)c2c1C[C@@H]1C[C@H]21", "note": "[Compound 930, (1aS,5aS)-2-Pyrazin-2-yl-1a,2,5,5a-tetrahydro-1H-2,3-diaza-cyclopropa[a]pentalene-4-carboxylic acid (1-trifluoromethyl-cyclopropyl)-amide]", "values": [{"measurement": "EC50", "setting": "[1]", "result": 17, "unit": "nM"}]}
{"smiles": "CC(C)(CO)NC(=O)c1nn(-c2cc(F)ccn2)c2c1C[C@H]1C[C@@H]21", "note": "[Compound 931, (1aR,5aR)-2-(4-Fluoro-pyridin-2-yl)-1a,2,5,5a-tetrahydro-1H-2,3-diaza-cyclopropa[a]pentalene-4-carboxylic acid (2-hydroxy-1,1-dimethyl-ethyl)-amide]", "values": [{"measurement": "EC50", "setting": "[1]", "result": 20.8, "unit": "nM"}]}
